Test results: ChEMBL document CHEMBL1201862, “PubChem BioAssay data set” (2004)
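Grown in 96-well plates, cells were treated for 48 hours with each compound at five concentrations. Insufficient inhibition: endpoint recorded as highest concentration tested. GI50 = concentration required for 50% inhibition of growth.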 Calls of active or inactive are those of the source. No stated cut-off is given here; in the data, active = GI50 up to about 1.1 µM and inactive = higher.

Columns and labels:
Test in all cases: NCI-60 cell line screen, 48 h
SK-MEL-5 = tested on: SK-MEL-5
K562 = tested on: K562
CCRF-CEM = tested on: CCRF-CEM
UACC-257 = tested on: UACC-257
OVCAR-8 = tested on: OVCAR-8
EKVX = tested on: EKVX
NCI-H226 = tested on: NCI-H226
SK-OV-3 = tested on: SK-OV-3
OVCAR-3 = tested on: OVCAR-3
BT-549 = tested on: BT-549
MCF7 = tested on: MCF7
PC-3 = tested on: PC-3
SF-539 = tested on: SF-539
T47D = tested on: T47D
HCT-116 = tested on: HCT-116
HT-29 = tested on: HT-29
TK-10 = tested on: TK-10
LOX IMVI = tested on: LOX IMVI
SF-295 = tested on: SF-295
ACHN = tested on: ACHN

SMILES	GI50 (SK-MEL-5)	GI50 (K562)	GI50 (CCRF-CEM)	GI50 (UACC-257)	GI50 (OVCAR-8)	GI50 (EKVX)	GI50 (NCI-H226)	GI50 (SK-OV-3)	GI50 (OVCAR-3)	GI50 (BT-549)	GI50 (MCF7)	GI50 (PC-3)	GI50 (SF-539)	GI50 (T47D)	GI50 (HCT-116)	GI50 (HT-29)	GI50 (TK-10)	GI50 (LOX IMVI)	GI50 (SF-295)	GI50 (ACHN)
CSc1[nH]nc(N)c1C(=O)Nc1ccccc1	> 100 µM (inactive)	> 100 µM (inactive)	> 100 µM (inactive)	> 100 µM (inactive)	> 100 µM (inactive)	> 100 µM (inactive)	> 100 µM (inactive)	> 100 µM (inactive)	> 100 µM (inactive)	> 100 µM (inactive)	> 100 µM (inactive)	> 100 µM (inactive)	> 100 µM (inactive)	> 100 µM (inactive)	> 100 µM (inactive)	> 100 µM (inactive)	> 100 µM (inactive)	> 100 µM (inactive)	–	–
Nn1nnc2ccccc21	> 100 µM (inactive)	> 100 µM (inactive)	> 100 µM (inactive)	> 100 µM (inactive)	> 100 µM (inactive)	> 100 µM (inactive)	> 100 µM (inactive)	> 100 µM (inactive)	> 100 µM (inactive)	> 100 µM (inactive)	> 100 µM (inactive)	> 100 µM (inactive)	–	> 100 µM (inactive)	> 100 µM (inactive)	> 100 µM (inactive)	> 100 µM (inactive)	> 100 µM (inactive)	> 100 µM (inactive)	> 100 µM (inactive)
COc1ccc(NC(C)=O)cc1N1C(=O)/C(=C\c2cccc(Oc3ccccc3)c2)SC1c1ccccc1 (stereo not drawn)	30.5 µM (inactive)	19.8 µM (inactive)	10.3 µM (inactive)	40.6 µM (inactive)	22.5 µM (inactive)	33.3 µM (inactive)	82.2 µM (inactive)	49 µM (inactive)	21.8 µM (inactive)	30.5 µM (inactive)	23.8 µM (inactive)	21.7 µM (inactive)	–	23.4 µM (inactive)	11.6 µM (inactive)	18.3 µM (inactive)	49.3 µM (inactive)	13.4 µM (inactive)	28.4 µM (inactive)	31.3 µM (inactive)
O=C(Nc1ccc(Cl)cc1)c1cc2c(cc1Cl)SC(NNCCO)=NS2(=O)=O	> 100 µM (inactive)	27.9 µM (inactive)	> 100 µM (inactive)	> 100 µM (inactive)	> 100 µM (inactive)	> 100 µM (inactive)	> 100 µM (inactive)	> 100 µM (inactive)	–	> 100 µM (inactive)	98.9 µM (inactive)	> 100 µM (inactive)	> 100 µM (inactive)	24.8 µM (inactive)	> 100 µM (inactive)	> 100 µM (inactive)	> 100 µM (inactive)	> 100 µM (inactive)	> 100 µM (inactive)	> 100 µM (inactive)
CCCCCCCCCC(=O)OCC1(CO)C/C(=C/CC(C(C)C)C(C)C)C(=O)O1 (stereo not drawn)	25.7 µM (inactive)	18.3 µM (inactive)	14.9 µM (inactive)	> 100 µM (inactive)	47.1 µM (inactive)	70.1 µM (inactive)	74.5 µM (inactive)	> 100 µM (inactive)	> 100 µM (inactive)	> 100 µM (inactive)	59 µM (inactive)	42.4 µM (inactive)	–	58.3 µM (inactive)	33.5 µM (inactive)	31.6 µM (inactive)	77.6 µM (inactive)	21.6 µM (inactive)	42.4 µM (inactive)	71.1 µM (inactive)
Cc1cc(C)c(C#N)c(SC(=S)NC(=O)c2ccc(Cl)cc2)n1	> 100 µM (inactive)	–	> 100 µM (inactive)	> 100 µM (inactive)	> 100 µM (inactive)	> 100 µM (inactive)	–	> 100 µM (inactive)	> 100 µM (inactive)	> 100 µM (inactive)	> 100 µM (inactive)	> 100 µM (inactive)	–	> 100 µM (inactive)	> 100 µM (inactive)	–	> 100 µM (inactive)	> 100 µM (inactive)	> 100 µM (inactive)	> 100 µM (inactive)
COC(=O)Nc1nc(=O)c2ccccc2[nH]1	55 µM (inactive)	31.1 µM (inactive)	> 100 µM (inactive)	> 100 µM (inactive)	> 100 µM (inactive)	> 100 µM (inactive)	> 100 µM (inactive)	65.3 µM (inactive)	> 100 µM (inactive)	> 100 µM (inactive)	> 100 µM (inactive)	> 100 µM (inactive)	> 100 µM (inactive)	> 100 µM (inactive)	48.8 µM (inactive)	> 100 µM (inactive)	> 100 µM (inactive)	–	30.6 µM (inactive)	> 100 µM (inactive)
CN(C)CCCN1c2ccccc2CCc2ccc([N+](=O)[O-])cc21	15.8 µM (inactive)	30.3 µM (inactive)	39.2 µM (inactive)	16.3 µM (inactive)	29.6 µM (inactive)	69.3 µM (inactive)	26.2 µM (inactive)	37.2 µM (inactive)	34.5 µM (inactive)	27.9 µM (inactive)	17.7 µM (inactive)	34.8 µM (inactive)	–	16.5 µM (inactive)	26.9 µM (inactive)	19.1 µM (inactive)	18.7 µM (inactive)	16.1 µM (inactive)	17.9 µM (inactive)	34.6 µM (inactive)
N#CCc1nc(-c2cc3ccccc3oc2=O)cs1	26.4 µM (inactive)	45.8 µM (inactive)	30.5 µM (inactive)	27.1 µM (inactive)	63.2 µM (inactive)	41.4 µM (inactive)	36.8 µM (inactive)	> 100 µM (inactive)	–	17.9 µM (inactive)	54.8 µM (inactive)	29.8 µM (inactive)	83.9 µM (inactive)	40.1 µM (inactive)	80.5 µM (inactive)	54 µM (inactive)	> 100 µM (inactive)	56.9 µM (inactive)	72.6 µM (inactive)	42.5 µM (inactive)
O=C(Cc1ccc(O)c(O)c1)NCc1c[nH]c2ccccc12	43.3 µM (inactive)	38.5 µM (inactive)	6.95 µM (inactive)	70.5 µM (inactive)	71.6 µM (inactive)	43.9 µM (inactive)	–	> 100 µM (inactive)	42.3 µM (inactive)	43.9 µM (inactive)	42 µM (inactive)	47.1 µM (inactive)	43.8 µM (inactive)	> 100 µM (inactive)	32.4 µM (inactive)	> 100 µM (inactive)	16.4 µM (inactive)	–	93.3 µM (inactive)	–
Cc1ccccc1N/C(=C(/C(Cl)=C(Cl)Cl)[N+](=O)[O-])n1nnc2ccccc21	–	21.1 µM (inactive)	29.6 µM (inactive)	28.9 µM (inactive)	–	20.5 µM (inactive)	17.6 µM (inactive)	15.3 µM (inactive)	16.9 µM (inactive)	14.1 µM (inactive)	27.7 µM (inactive)	22.1 µM (inactive)	17.6 µM (inactive)	21 µM (inactive)	42.4 µM (inactive)	19.4 µM (inactive)	–	–	14.9 µM (inactive)	29.2 µM (inactive)
O=[N+]([O-])c1ccc2nnnn2c1	18 µM (inactive)	3.18 µM (inactive)	–	27.8 µM (inactive)	44.1 µM (inactive)	> 100 µM (inactive)	12.3 µM (inactive)	42.6 µM (inactive)	13.5 µM (inactive)	23.3 µM (inactive)	24 µM (inactive)	> 100 µM (inactive)	14.9 µM (inactive)	> 100 µM (inactive)	4.18 µM (inactive)	16.5 µM (inactive)	48.3 µM (inactive)	5.7 µM (inactive)	11.3 µM (inactive)	10.7 µM (inactive)
Brc1ccc(/N=N/c2ccc3ccccc3n2)cc1	20.7 µM (inactive)	–	> 100 µM (inactive)	82.8 µM (inactive)	30.3 µM (inactive)	17.6 µM (inactive)	10.6 µM (inactive)	22.9 µM (inactive)	–	14.5 µM (inactive)	25.6 µM (inactive)	22 µM (inactive)	22.2 µM (inactive)	22.2 µM (inactive)	12.9 µM (inactive)	47.4 µM (inactive)	28 µM (inactive)	–	24.8 µM (inactive)	13.5 µM (inactive)
O=C(Nc1c(Cl)cccc1Cl)c1c(Cl)c(Cl)c(Cl)c(Cl)c1-c1nc2ccccc2[nH]1	29.9 µM (inactive)	59.3 µM (inactive)	> 100 µM (inactive)	> 100 µM (inactive)	33 µM (inactive)	9.48 µM (inactive)	14.5 µM (inactive)	0.0507 µM (active)	25.4 µM (inactive)	56.9 µM (inactive)	34.6 µM (inactive)	> 100 µM (inactive)	0.535 µM (active)	28 µM (inactive)	43.5 µM (inactive)	26 µM (inactive)	–	46.8 µM (inactive)	0.0468 µM (active)	50.1 µM (inactive)
Cn1c(=O)c2[nH]c(-n3nc(-c4ccccc4)cc3N)nc2n(C)c1=O	5.38 µM (inactive)	6.46 µM (inactive)	2.64 µM (inactive)	–	4.85 µM (inactive)	5.42 µM (inactive)	5.55 µM (inactive)	4.04 µM (inactive)	5.35 µM (inactive)	14.5 µM (inactive)	13.8 µM (inactive)	19.7 µM (inactive)	5.08 µM (inactive)	11.3 µM (inactive)	6.49 µM (inactive)	4.15 µM (inactive)	12.4 µM (inactive)	–	4.92 µM (inactive)	3.66 µM (inactive)
